Data as given in ChEMBL document CHEMBL1131216, “Anhydrolide macrolides. 2. Synthesis and antibacterial activity of 2,3-anhydro-6-O-methyl 11,12-carbazate erythromycin A analogues” (1998).
≈ marks a conversion by molar mass, not a printed value.

Columns and labels:
Type in all cases: functional
Streptococcus pyogenes [1] = assay: In vitro antibacterial activity of 930 strain of Gram positive bacteria Streptococcus pyogenes
Streptococcus pneumoniae [2] = assay: In vitro antibacterial activity of 5979 strain of Gram positive bacteria Streptococcus pneumoniae
Staphylococcus aureus [3] = assay: In vitro antibacterial activity of A5177 strain of Gram positive bacteria Staphylococcus aureus
Streptococcus pneumoniae [4] = assay: In vitro antibacterial activity of ATCC 6303 strain of Gram positive bacteria Streptococcus pneumoniae
Staphylococcus aureus [5] = assay: In vitro antibacterial activity of 6538P strain of Gram positive bacteria Staphylococcus aureus
Streptococcus pyogenes [6] = assay: In vitro antibacterial activity of EES61 strain of Gram positive bacteria Streptococcus pyogenes
Haemophilus influenzae = assay: In vitro antibacterial activity of DILL strain of Gram negative bacteria Haemophilus influenzae
Streptococcus pyogenes [7] = assay: In vitro antibacterial activity of PIU2584 strain of Gram positive bacteria Streptococcus pyogenes
Staphylococcus aureus [8] = assay: In vitro antibacterial activity of A-5278 strain of Gram positive bacteria Staphylococcus aureus
Streptococcus pneumoniae [9] = assay: In vitro antibacterial activity of 5649 strain of Gram positive bacteria Streptococcus pneumoniae

Structure (SMILES) | MIC (Streptococcus pyogenes [1]) [µg/mL] | MIC (Streptococcus pneumoniae [2]) [µg/mL] | MIC (Staphylococcus aureus [3]) [µg/mL] | MIC (Streptococcus pneumoniae [4]) [µg/mL] | MIC (Staphylococcus aureus [5]) [µg/mL] | MIC (Streptococcus pyogenes [6]) [µg/mL] | MIC (Haemophilus influenzae) [µg/mL] | MIC (Streptococcus pyogenes [7]) [µg/mL] | MIC (Staphylococcus aureus [8]) [µg/mL] | MIC (Streptococcus pneumoniae [9]) [µg/mL]
CC[C@H]1OC(=O)/C(C)=C/[C@H](C)[C@@H](O[C@@H]2O[C@H](C)C[C@H](N(C)C)[C@H]2O)[C@@](C)(OC)C[C@@H](C)C(=O)[C@H](C)[C@H]2N(NC/C=C/c3ccc([N+](=O)[O-])o3)C(=O)O[C@]12C | 64 (≈ 83.9 µM) | > 128 | 0.01 (≈ 0.0131 µM) | 0.03 (≈ 0.0393 µM) | 0.02 (≈ 0.0262 µM) | 0.004 (≈ 0.00524 µM) | 2 (≈ 2.62 µM) | 0.25 (≈ 0.328 µM) | > 100 | 0.5 (≈ 0.655 µM)
CC[C@H]1OC(=O)/C(C)=C/[C@H](C)[C@@H](O[C@@H]2O[C@H](C)C[C@H](N(C)C)[C@H]2O)[C@@](C)(OC)C[C@@H](C)[C@@H]2NN3C(=O)O[C@@]1(C)[C@H]3[C@H]2C | > 128 | > 128 | > 100 | > 128 | > 100 | > 128 | > 128 | > 128 | > 100 | > 128
CC[C@H]1OC(=O)/C(C)=C/[C@H](C)[C@@H](O[C@@H]2O[C@H](C)C[C@H](N(C)C)[C@H]2O)[C@@](C)(OC)C[C@@H](C)C(=O)[C@H](C)[C@H]2N(NCc3ccc(O)c(O)c3)C(=O)O[C@]12C | > 128 | > 128 | 0.78 (≈ 1.06 µM) | 1 (≈ 1.36 µM) | 0.78 (≈ 1.06 µM) | 1 (≈ 1.36 µM) | 32 (≈ 43.6 µM) | 16 (≈ 21.8 µM) | > 100 | 2 (≈ 2.73 µM)
CC[C@H]1OC(=O)/C(C)=C/[C@H](C)[C@@H](O[C@@H]2O[C@H](C)C[C@H](N(C)C)[C@H]2O)[C@@](C)(OC)C[C@@H](C)C(=O)[C@H](C)[C@H]2N(NCCCn3nnc4ccccc43)C(=O)O[C@]12C | > 128 | > 128 | 0.1 (≈ 0.13 µM) | 0.03 (≈ 0.0389 µM) | 0.2 (≈ 0.259 µM) | 0.03 (≈ 0.0389 µM) | 4 (≈ 5.19 µM) | 1 (≈ 1.3 µM) | > 100 | 1 (≈ 1.3 µM)
CC[C@H]1OC(=O)/C(C)=C/[C@H](C)[C@@H](O[C@@H]2O[C@H](C)C[C@H](N(C)C)[C@H]2O)[C@@](C)(OC)C[C@@H](C)C(=O)[C@H](C)[C@H]2N(NCCCc3ccc(Cl)cc3)C(=O)O[C@]12C | 16 (≈ 20.9 µM) | 16 (≈ 20.9 µM) | 0.05 (≈ 0.0654 µM) | 0.03 (≈ 0.0392 µM) | 0.1 (≈ 0.131 µM) | 0.125 (≈ 0.164 µM) | 16 (≈ 20.9 µM) | 1 (≈ 1.31 µM) | 25 (≈ 32.7 µM) | 1 (≈ 1.31 µM)
CC[C@H]1OC(=O)/C(C)=C/[C@H](C)[C@@H](O[C@@H]2O[C@H](C)C[C@H](N(C)C)[C@H]2O)[C@@](C)(OC)C[C@@H](C)C(=O)[C@H](C)[C@H]2N(NCc3ccc(OC)cc3)C(=O)O[C@]12C | > 64 | > 64 | 0.2 (≈ 0.273 µM) | 0.125 (≈ 0.171 µM) | 0.2 (≈ 0.273 µM) | 0.03 (≈ 0.041 µM) | 8 (≈ 10.9 µM) | 1 (≈ 1.37 µM) | > 100 | 2 (≈ 2.73 µM)
CC[C@H]1OC(=O)/C(C)=C/[C@H](C)[C@@H](O[C@@H]2O[C@H](C)C[C@H](N(C)C)[C@H]2O)[C@@](C)(OC)C[C@@H](C)C(=O)[C@H](C)[C@H]2N(NCCCc3cccc(O)c3)C(=O)O[C@]12C | 128 (≈ 172 µM) | > 128 | 0.1 (≈ 0.134 µM) | 0.03 (≈ 0.0402 µM) | 0.1 (≈ 0.134 µM) | 0.06 (≈ 0.0804 µM) | 4 (≈ 5.36 µM) | 1 (≈ 1.34 µM) | > 100 | 0.5 (≈ 0.67 µM)
CC[C@H]1OC(=O)/C(C)=C/[C@H](C)[C@@H](O[C@@H]2O[C@H](C)C[C@H](N(C)C)[C@H]2O)[C@@](C)(OC)C[C@@H](C)C(=O)[C@H](C)[C@H]2N(N)C(=O)O[C@]12C | > 64 | > 64 | 1.56 (≈ 2.55 µM) | 0.25 (≈ 0.409 µM) | 1.56 (≈ 2.55 µM) | 0.25 (≈ 0.409 µM) | 32 (≈ 52.3 µM) | 1 (≈ 1.63 µM) | > 100 | 1 (≈ 1.63 µM)
CC[C@H]1OC(=O)/C(C)=C/[C@H](C)[C@@H](O[C@@H]2O[C@H](C)C[C@H](N(C)C)[C@H]2O)[C@@](C)(OC)C[C@@H](C)C(=O)[C@H](C)[C@H]2N(NCc3ccc(N)cc3)C(=O)O[C@]12C | > 128 | > 128 | 0.78 (≈ 1.09 µM) | 0.25 (≈ 0.349 µM) | 0.78 (≈ 1.09 µM) | 0.06 (≈ 0.0837 µM) | 16 (≈ 22.3 µM) | 1 (≈ 1.39 µM) | > 100 | 1 (≈ 1.39 µM)
CC[C@H]1OC(=O)/C(C)=C/[C@H](C)[C@@H](O[C@@H]2O[C@H](C)C[C@H](N(C)C)[C@H]2O)[C@@](C)(OC)C[C@@H](C)C(=O)[C@@H](C)[C@H]2N(N)C(=O)O[C@]12C | > 128 | > 128 | 50 (≈ 81.7 µM) | 8 (≈ 13.1 µM) | 50 (≈ 81.7 µM) | 8 (≈ 13.1 µM) | > 128 | 32 (≈ 52.3 µM) | > 100 | 16 (≈ 26.2 µM)
CC[C@H]1OC(=O)/C(C)=C/[C@H](C)[C@@H](O[C@@H]2O[C@H](C)C[C@H](N(C)C)[C@H]2O)[C@@](C)(OC)C[C@@H](C)C(=O)[C@H](C)[C@H]2N(NCCCc3ccccc3Cl)C(=O)O[C@]12C | 16 (≈ 20.9 µM) | 32 (≈ 41.9 µM) | 0.2 (≈ 0.262 µM) | 0.125 (≈ 0.164 µM) | 0.2 (≈ 0.262 µM) | 0.03 (≈ 0.0392 µM) | 16 (≈ 20.9 µM) | 1 (≈ 1.31 µM) | 50 (≈ 65.4 µM) | 1 (≈ 1.31 µM)
CC[C@H]1OC(=O)/C(C)=C/[C@H](C)[C@@H](O[C@@H]2O[C@H](C)C[C@H](N(C)C)[C@H]2O)[C@@](C)(OC)C[C@@H](C)C(=O)[C@H](C)[C@H]2N(NC/C=C/c3ccc(NC(C)=O)cc3)C(=O)O[C@]12C | > 64 | > 64 | 0.2 (≈ 0.255 µM) | 0.03 (≈ 0.0382 µM) | 0.2 (≈ 0.255 µM) | 0.06 (≈ 0.0764 µM) | 4 (≈ 5.1 µM) | 1 (≈ 1.27 µM) | > 100 | 1 (≈ 1.27 µM)
CC[C@H]1OC(=O)/C(C)=C/[C@H](C)[C@@H](O[C@@H]2O[C@H](C)C[C@H](N(C)C)[C@H]2O)[C@@](C)(OC)C[C@@H](C)C(=O)[C@H](C)[C@H]2N(NCc3cc(O)ccc3O)C(=O)O[C@]12C | 128 (≈ 174 µM) | 128 (≈ 174 µM) | 3.1 (≈ 4.22 µM) | 0.25 (≈ 0.341 µM) | 3.1 (≈ 4.22 µM) | 0.25 (≈ 0.341 µM) | 32 (≈ 43.6 µM) | 4 (≈ 5.45 µM) | > 100 | 2 (≈ 2.73 µM)
CC[C@H]1OC(=O)/C(C)=C/[C@H](C)[C@@H](O[C@@H]2O[C@H](C)C[C@H](N(C)C)[C@H]2O)[C@@](C)(OC)C[C@@H](C)C(=O)[C@H](C)[C@H]2N(NCCCc3ccc(NC(C)=O)cc3)C(=O)O[C@]12C | > 128 | > 128 | 0.39 (≈ 0.496 µM) | 0.06 (≈ 0.0762 µM) | 0.39 (≈ 0.496 µM) | 0.06 (≈ 0.0762 µM) | 8 (≈ 10.2 µM) | 2 (≈ 2.54 µM) | > 100 | 2 (≈ 2.54 µM)
CC[C@H]1OC(=O)/C(C)=C/[C@H](C)[C@@H](O[C@@H]2O[C@H](C)C[C@H](N(C)C)[C@H]2O)[C@@](C)(OC)C[C@@H](C)C(=O)[C@H](C)[C@H]2N(NC/C=C/c3cccc4ccccc34)C(=O)O[C@]12C | 8 (≈ 10.3 µM) | 16 (≈ 20.6 µM) | 0.39 (≈ 0.501 µM) | 0.125 (≈ 0.161 µM) | 0.39 (≈ 0.501 µM) | 0.125 (≈ 0.161 µM) | 16 (≈ 20.6 µM) | 1 (≈ 1.29 µM) | 25 (≈ 32.1 µM) | 1 (≈ 1.29 µM)
CC[C@H]1OC(=O)/C(C)=C/[C@H](C)[C@@H](O[C@@H]2O[C@H](C)C[C@H](N(C)C)[C@H]2O)[C@@](C)(OC)C[C@@H](C)C(=O)[C@H](C)[C@H]2N(NCc3ccc(NC(C)=O)cc3)C(=O)O[C@]12C | > 64 | > 64 | 0.78 (≈ 1.03 µM) | 0.125 (≈ 0.165 µM) | 0.78 (≈ 1.03 µM) | 0.03 (≈ 0.0395 µM) | 4 (≈ 5.27 µM) | 2 (≈ 2.64 µM) | > 100 | 1 (≈ 1.32 µM)
